The values below come from patent publication US12233053B2, “Adenosine A3 receptor antagonists for treating aging skin and wounds” (ORADIN PHARMACEUTICAL LTD., priority 2021, dated 2025).

Data set [1] concerns HaCaT keratinocyte cells. Nature of the data set: Scratch assay (gap size, cell migration), keratinocytes. The data set is classed as cell-based, human. To be noted: 24 hours. On the procedure:
(§1) Keratinocyte HaCaT cells or 3T3 fibroblast cells (10^6 cells) were grown in 35 mm petri dishes in DMEM containing 10% FCS overnight. Thereafter, the cell cultures were scratched using 20 μl pipet tip in the middle of the culture plate, the cells were washed three times, and then MRS-1523 (at concentrations of 10 nM to 10 μM in DMEM containing 10% FCS) was added to each scratched plate and incubated with the cells for 24 hours. The gap size in plates of MRS-1523 treated cells was compared to the gap size in plates of control cells which were scratched and incubated for 24 hours in DMEM containing 10% FCS in the absence of MRS-1523. The results are presented as mean±SD. Statistical significance was determined by Student T-test.

In data set [2] the test system is 3T3 fibroblast cells. The experiment in a line: Scratch assay (gap size, cell migration), fibroblasts. To be noted: 24 hours. In kind it is cell-based. On the procedure:
as §1

For data set [3], the system named is B16-F1 melanocytes. Nature of the data set: Scratch assay (gap size, cell migration), melanocytes. The data set is classed as cell-based. Conditions: 10 μM, 24 hours, B16-F1, FIG. 4E. On the procedure: FIGS. 4A-E show bar graphs of the gap size in a scratch assay of different cell types in culture. FIGS. 4A-B show bar graphs of the gap size of HaCaT keratinocyte cells (A) and 3T3 fibroblast cells (B) 24 hours after treatment with increasing concentrations of MRS-1523 in the scratch assay. FIGS. 4C-E show bar graphs of the gap size of HaCAT cells (FIG. 4C), 3T3 fibroblasts (FIG. 4D), and B16-F1 melanocytes (FIG. 4E) after 24-hour treatment with 10 μM MRS-1523 in the scratch assay. *p<0.05, **p<0.01 by Student T-test.
as §1

Another data set relates to skin explants. Nature of the data set: Fibroblast and collagen staining of skin explants (H&E, Fontana-Masson). More on the design: species or system human. To be noted: 10 μM, 12 days. On the procedure: Skin explants were treated with MRS-1523 (10 μM) for 12 days. Thereafter, the skin explants were stained with hematoxylin and eosin (H&E; FIGS. 5A and 5C) or with Fontana-Masson (FIGS. 5B and 5D).

For data set [4], the system named is 3T3 fibroblast cells. The experiment in a line: Collagen-1 and F-actin expression in fibroblasts (confocal fluorescence). To be noted: 10 μM, 24 hours. In kind it is cell-based. On the procedure:
The effect of MRS-1523 on collagen level in fibroblasts in culture was next examined. 3T3-fibroblast cells were grown in DMEM containing 10% FCS for 24 hours, and then were treated with 10 μM MRS-1523 for additional 24 hours. Thereafter, the presence of collagen or F-actin was evaluated as follows: the cells were incubated with rabbit anti-collagen-1 antibodies, and then with Alexa Fluor® 488-conjugated goat anti-rabbit antibodies to detect collagen-1 (green staining). Detection of F-actin was performed by F-actin-Phalloidin-staining (red staining). Cell nuclei were stained with 4′,6-diamidino-2-phenylindole (DAPI; blue staining).

A further data set concerns HaCaT cells. The experiment in a line: Differentiation markers PAR-2 and Filaggrin in keratinocytes (immunostaining). Conditions: 10 μM, 24 hours. In kind it is cell-based, human. The procedure:
HaCaT cells were grown in DMEM containing 10% FCS for 24 hours. The cells were then treated with 10 μM MRS-1523 for 24 hours, washed with PBS, and fixed with 4% paraformaldehyde for 1 hour. Fixed cells were washed and incubated with the following primary antibodies (Sigma): anti-PAR-2 (Clone SAM11 produced in mouse, reactive to mouse and human) followed by secondary antibodies, anti-mouse antibodies conjugated to FITC, or anti-Filaggrin (FLG; produced in rabbit) followed by secondary antibodies, anti-rabbit antibodies conjugated to Alexa Fluor® 488.

Data set [5] has as its system HaCaT keratinocyte cells. To be noted: 10 μM or lower concentrations, 24 hours.
Procedure: (§2) Cell viability was then measured using Alamar blue (AB) assay according to the manufacturer's instructions. Briefly, the cells were rinsed with PBS, and 0.2 ml of an AB solution (10% (v/v) of AB dye in DMEM) were added to each well. After incubation of 3 hours, AB fluorescence was quantified at the excitation and emission wavelengths of 540 and 595 nm, respectively, using a Tecan Genios microplate reader. The results are given as mean±SD. Statistical significance was determined by Student T-Test.
Data set [6] deals with 3T3 fibroblast cells.
Procedure: as §2
In data set [7] the test system is B16-F1 melanocytes.
Procedure: HaCaT cells or 3T3 cells (2×10^4) were incubated in 96-well Elisa plates in DMEM containing 10% fetal calf serum (FCS) in the presence of increasing concentrations of MRS-1523 for 24 hours. Cell viability was then measured using Alamar blue (AB) assay according to the manufacturer's instructions. Briefly, the cells were rinsed with PBS, and 0.2 ml of an AB solution (10% (v/v) of AB dye in DMEM) were added to each well. After incubation of 3 hours, AB fluorescence was quantified at the excitation and emission wavelengths of 540 and 595 nm, respectively, using a Tecan Genios microplate reader. The results are given as mean±SD. Statistical significance was determined by Student T-Test.

Turning to `CCCOC(=O)c1c(-c2ccccc2)nc(CC)c(C(=O)SCC)c1CCC` [MRS-1523, 3-propyl-6-ethyl-5[(ethylthio)carbonyl]-2-phenyl-4-propyl-3-pyridine carboxylate], in the data set on HaCaT keratinocyte cells [1] (0.01 μM-10 μM, FIG. 4A), the “gap size vs control cells (cell migration)” value was “significant reduction in the gap size”. Moreover, the cell migration result in the data set on HaCaT keratinocyte cells [1] (10 μM, FIG. 4C) is “significantly stimulated”. In addition, the “gap size vs control cells (cell migration)” value in the data set on 3T3 fibroblast cells [2] (0.01 μM-10 μM, 3T3, FIG. 4B) is listed as “significant reduction in the gap size”. The cell migration result with 3T3 fibroblast cells [2] (10 μM, 3T3, FIG. 4D) is on record as “significantly stimulated”. The melanocytes migration result in the data set with B16-F1 melanocytes [3] was “attenuated”. Moreover, in the data set on skin explants, the “collagen levels in the dermis vs untreated skin explants” value is reported as “increase” and the “fibroblast levels in the dermis vs untreated skin explants” value was “increase”. In the data set with 3T3 fibroblast cells [4], the “expression of F-actin vs control cells” value is reported as “not increased” and the “expression of collagen-1 vs control untreated fibroblasts” value is given as “increased expression”. In the data set on HaCaT cells, the “expression of Filaggrin (FLG) vs control untreated cells” value is “decrease” and the “expression of PAR-2 vs control untreated cells” value is “decrease”. Moreover, in the data set with HaCaT keratinocyte cells [5], the “stimulation of keratinocyte proliferation” value is 8-16%. Besides, the “toxic effect on fibroblasts” value in the data set with 3T3 fibroblast cells [6] is “did not induce any toxic effect”. Also, the fibroblast proliferation result in the data set with 3T3 fibroblast cells [6] (10 μM, 24 hours, 3T3) was “slight but significant increase”. Moreover, the “toxic effect on melanocyte cells” value with B16-F1 melanocytes [7] is “did not induce any toxic effect”. In the data set on B16-F1 melanocytes [7] (24 hours, B16-F1), the melanocyte proliferation result was “promoted their proliferation”.
